Data taken from patent US6060516A, “N^1 -propargylhydrazines, N^2 -propargylhydrazines and their analogs for the treatment of depression, anxiety and neurodegeneration” (CV Technologies, Inc., priority 1998, dated 2000).

Experiments:
[1] = system: rat brain and liver monoamine oxidase-A; assay: Monoamine oxidase-A inhibiting activity ex vivo; assay type: in vivo
Protocol: (§1) Radiolabelled 5-hydroxytryptamine was used as a substrate for monoamine oxidase-A. The compounds of interest were either injected intraperitonealy in DMSO or administered by gavage in water for various periods. The animals were killed by decapitation and the brains and livers immediately removed and frozen until assayed for monoamine oxidase-A activity. Tissues were homogenized and appropriately diluted in buffer prior to incubation. Incubations proceeded at 37° C. for 10 minutes. Incubation was terminated by the addition of acid and the radiolabelled product (5-hydroxyindoleacetaldehyde and 5-hydroxyindoleacetic acid) was extracted and quantified by liquid scintillation counting procedures. Incubations were done in triplicate and incubations containing phenelzine were included for comparison. The percent inhibition of monoamine oxidase-A activity compared to controls containing no drug was calculated.
(§2) Values are the mean ± the standard error based on (n) determinations.
(§3) Oral doses were administered as 75 μmol/kg on day 1, 75 μmol/kg on
(§4) day 2 and the animals were killed 5 hours later.

[2] = biological target: T1, rat brain monoamine oxidase-B (Rattus norvegicus, UniProt P19643); assay: Monoamine oxidase-B inhibiting activity in vitro (radiochemical, β-phenylethylamine substrate, rat brain homogenate); assay type: biochemical; conditions: for inhibition at 100 µM: 1 × 10^-4 M; for inhibition at 10 µM: 1 × 10^-5 M; for inhibition at 1 µM: 1 × 10^-6 M; for inhibition at 0.1 µM: 1 × 10^-7 M; for inhibition at 0.01 µM: 1 × 10^-8 M
T1 construct: appropriately diluted homogenates of rat brain or liver; from tissue; host or cells: rat brain or liver homogenate
T1 sequence (P19643 1-520): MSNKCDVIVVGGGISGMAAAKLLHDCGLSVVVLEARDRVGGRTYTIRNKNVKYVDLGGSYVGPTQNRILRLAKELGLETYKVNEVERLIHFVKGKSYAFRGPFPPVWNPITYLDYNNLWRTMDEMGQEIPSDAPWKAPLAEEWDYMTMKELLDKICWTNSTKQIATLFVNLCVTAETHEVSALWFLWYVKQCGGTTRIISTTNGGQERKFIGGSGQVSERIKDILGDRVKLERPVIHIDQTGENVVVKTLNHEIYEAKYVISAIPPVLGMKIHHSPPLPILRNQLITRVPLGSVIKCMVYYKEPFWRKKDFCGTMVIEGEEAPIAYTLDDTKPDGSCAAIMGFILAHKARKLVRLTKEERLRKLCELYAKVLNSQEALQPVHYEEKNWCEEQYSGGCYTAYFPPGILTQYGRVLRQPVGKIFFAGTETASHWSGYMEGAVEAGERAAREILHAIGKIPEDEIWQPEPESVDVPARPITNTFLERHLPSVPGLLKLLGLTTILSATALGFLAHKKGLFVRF
Protocol: Radiolabelled β-phenylethylamine was employed as a substrate for monoamine oxidase-B. Various concentrations of the compounds of interest were incubated in appropriately diluted homogenates of rat brain or liver in a 0.2 M potassium phosphate buffer. Incubations proceeded at 37° C. for 10 minutes. Incubation was terminated by the addition of acid and the radiolabelled product (phenylacetaldehyde and phenylacetic acid) was extracted and quantified by liquid scintillation counting procedures. Incubations were done in triplicate and incubations containing phenelzine were included for comparison. The percent inhibition of monoamine oxidase-B activity compared to controls containing no drug was calculated.

[3] = system: rat brain and liver monoamine oxidase-B; assay: Monoamine oxidase-B inhibiting activity ex vivo; assay type: in vivo
Protocol: as §1, with “β-phenylethylamine” for “5-hydroxytryptamine”, “employed” for “used”, “oxidase-B.” for “oxidase-A.”, “intraperitoneally” for “intraperitonealy”, “oxidase-B” for “oxidase-A”, “(phenylacetic” for “(5-hydroxyindoleacetaldehyde and 5-hydroxyindoleacetic”
as §2, §3, §4

[4] = system: NA, DA, 5-HT, 5-HIAA and DOPAC concentrations in rat hypothalamus; assay: Rat hypothalamus amine and amine metabolite concentrations; assay type: in vivo
Protocol: The effects of various doses of CVT-P040 on the concentrations of hypothalamus amine neurotransmitters and their metabolites were evaluated by examining concentrations of noradrenaline (NA), dopamine (DA), 5-hydroxytryptamine (5-HT), 5-hydroxyindoleacetic acid (5-HIAA) and 3,4-dihydroxyphenylacetic acid (DOPAC) in rat hypothalami 5 hours after the injection of the drug. […] The brains were removed and divided in half. One half of the brain was frozen in isopentane on dry ice and retained for estimates of amino acid neurotransmitter concentrations. The other half had the hypothalamus removed and frozen on dry ice for later estimates of amines and their metabolites according to the method of Sloley, B. D. and Goldberg J. I. (1991), Determination of γ-glutamyl conjugates of monoamines by means of high-performance liquid chromatography with electrochemical detection and application to gastropod tissues, J. Chromatog. 567: 49-56. The rest of the brain was frozen on dry ice for ex vivo examination of MAO activity as described earlier.

[5] = brain, 150 μmol/kg, 5 hr, i.p. in 10% DMSO
[6] = brain, 2 × 75 μmol/kg per os (day 1 and day 2, killed 5 hours later)
[7] = liver, 2 × 75 μmol/kg per os (day 1 and day 2, killed 5 hours later)
[8] = brain, 150 μmol/kg, 5 hr, i.p. in 10% DMSO (Table 4, MAO-B by title)
[9] = brain, 2 × 75 μmol/kg per os (Table 4, MAO-B by title)
[10] = liver, 2 × 75 μmol/kg per os (Table 4, MAO-B by title)

Compound	% Inhibition Monoamine Oxidase-A [1, 5] [%]	% Inhibition Monoamine Oxidase-A [1, 6] [%]	% Inhibition Monoamine Oxidase-A [1, 7] [%]	inhibition at 100 µM [2] [%]	inhibition at 10 µM [2] [%]	inhibition at 1 µM [2] [%]	inhibition at 0.1 µM [2] [%]	inhibition at 0.01 µM [2] [%]	% Inhibition of Monoamine Oxidase-B [3, 8] [%]	% Inhibition of Monoamine Oxidase-B [3, 9] [%]	% Inhibition of Monoamine Oxidase-B [3, 10] [%]	5-HIAA ([4]; 150 μmol/kg, 5 hr, ip) [ng/g]	5-HT ([4]; 150 μmol/kg, 5 hr, ip) [ng/g]	DA ([4]; 150 μmol/kg, 5 hr, ip) [ng/g]	DOPAC ([4]; 150 μmol/kg, 5 hr, ip) [ng/g]	NA ([4]; 150 μmol/kg, 5 hr, ip) [ng/g]	5-HIAA ([4]; 2 × 75 μmol/kg per os) [ng/g]	DOPAC ([4]; 2 × 75 μmol/kg per os) [ng/g]	NA ([4]; 2 × 75 μmol/kg per os) [ng/g]	also measured
C#CCN(CCc1ccccc1)NC(C)=O [CVT-P041, N^1 -propargyl-N^2 -acetylphenelzine]	98.4 ± 0.0	92.9 ± 1.7	98.3 ± 0.2	92.7	71.3	28.8	6.2	-2	77.6 ± 0.4	73.6 ± 2.2	97.4 ± 0.2	179 ± 6	1100	461 ± 34	91 ± 6	2141 ± 86	228 ± 17	50	1749	–
NNCCc1ccccc1 [phenelzine, 1-(2-phenyl) ethylhydrazine, reference compound]	97.2	96.5 ± 1.2	97.7 ± 0.3	100	100	90.1	18.3	6.9	83.3 ± 2.3	76.4 ± 3.4	95.6 ± 1.0	131	1583 ± 95	385	51 ± 4	2113 ± 102	167	54 ± 4	2148 ± 171	% Inhibition Monoamine Oxidase-A ([1]; brain, 5.75 μmol/kg, 5 hr, i.p. in 10% DMSO): 9.1 ± 5.3%; % Inhibition Monoamine Oxidase-A ([1]; liver, 5.75 μmol/kg, 5 hr, i.p. in 10% DMSO): 36.4 ± 5.3%; % Inhibition of Monoamine Oxidase-B ([3]; brain, 5.75 μmol/kg, 5 hr, i.p. in 10% DMSO (Table 4, MAO-B by title)): -2.7 ± 5.6%; % Inhibition of Monoamine Oxidase-B ([3]; liver, 5.75 μmol/kg, 5 hr, i.p. in 10% DMSO (Table 4, MAO-B by title)): 18.1 ± 5.8%; 5-HIAA ([4]; 5.75 μmol/kg, 5 hr, ip): 334 ± 23 ng/g; 5-HT ([4]; 5.75 μmol/kg, 5 hr, ip): 755 ng/g; DA ([4]; 5.75 μmol/kg, 5 hr, ip): 544 ± 66 ng/g; DOPAC ([4]; 5.75 μmol/kg, 5 hr, ip): 89 ± 7 ng/g; NA ([4]; 5.75 μmol/kg, 5 hr, ip): 1468 ± 119 ng/g
